In US5648366A, “Substituted pyrrolidin-3-yl-alkyl-piperidines” (Merrell Pharmaceuticals Inc., priority 1995, dated 1997):
Counter-ions that a name gives are not always drawn.

Key:
NK2 receptor = experiment: Antagonism of NKA aerosol induced respiratory effects in conscious guinea pigs; assay type: in vivo, guinea pig; settings: 20 min prior to NKA aerosol (0.05%); for DYSPNEA ONSET: mean and SEM
Method: (§1) ANTAGONISM OF NKA AND CAPSAICIN INDUCED R[…] IN CONSCIOUS GUINEA PIGS
(§2) In vivo experiments were performed using male Duncan Hartley guinea pigs (250-350 g). Changes in conscious breathing patterns were monitored in four animals simultaneously using modified whole body plethysmography consisting of four small plexiglass boxes each connected to a reference box via Validyne DP 45-16 differential pressure transducers. The 4 boxes were equipped with an air supply line (also used for aerosol delivery) and an exhaust air line. Supply and exhaust lines were of the same length and narrow bore and arose from a common supply chamber and vented to a common exhaust chamber. This system was used to ensure that fluctuations in supply air and atmospheric pressure would remain in phase and be eliminated from the net signal by the differential pressure transducers. The analog pressure signals were digitalized via a Data Translation DT2821 A to D board. Data were collected at a rate of 100 samples/second/animal. Each cycle of pressure change was analyzed using the following parameters: rising and falling slope determined between minimum and maximum pressures, the ratio of rising over falling slope, and the magnitude of the change between initial trough pressure and peak cycle pressure. Using these values (and observing the animals) the pressure cycles were characterized into normal breaths, forced exhalations (apparent by abdominal heaving), significant respiratory events (SREs; usually coughs, less often sneezes or gasps which were characterized by transient, extremely large pressure increases which were distinguishable from noise) and movement/noise with a PCAT 286 running a System V UNIX operating system. Dyspnea was defined as a significant, sustained increase in plethysmograph pressure which was associated with an observable shift to labored breathing in the animal.
(§3) During the course of a typical experiment in which airway responsiveness to various bronchoconstricting agents was examined, aerosols were delivered for 19 min (0.33 ml/min) using a DeVilbiss Ultraneb 99 ultrasonic nebulizer and animals monitored during this time. Prior to nebulization, 1 min of resting breathing was collected to establish a baseline pressure. […] The vehicle for nebulization of all bronchoconstrictive agents was phosphate buffered saline (pH 7.4) which elicited no r[…] itself. Putative tachykinin antagonists were administered either (i.v.) 20 min prior to onset of aerosol exposure or orally 1 hour prior to onset (to guinea pigs after an overnight fast).
Table 6 illustrates the effects of the compounds of Example 3; Example 20A; and Example 5A on r[…] induced by NKA aerosol. […] These effects were dose dependent i.e. the higher the dose of compound, the greater attenuation of NKA-mediated effects.

NK1 receptor [1] = molecular target: T1, NK1 receptor (Cavia porcellus, UniProt P30547); experiment: Antagonism of SP-induced plasma protein extravasation in guinea pig trachea; assay type: in vivo; set-up: SP-induced plasma protein extravasation in guinea pig trachea; from tissue; host or cells: living guinea pig; trachea and primary bronchi; settings: i.v.; Example 3 versus Example 20A
Method: ANTAGONISM OF SP-INDUCED PLASMA PROTEIN EXTRAVASATION IN GUINEA PIG TRACHEA
SP-induced protein leakage through postcapillary venules was assessed by measuring Evans Blue dye accumulation in guinea pig trachea. Animals were anesthetized with pentobarbital then injected with Evans Blue dye (20 mg/kg, i.v., prepared in 0.9% NaCl solution). One minute after dye administration, the antagonist was administered (i.v.) followed by SP (0.3 nmole/kg, i.v.) and, after 5 min, excess dye removed from the circulation by transcardiac perfusion with 50 ml 0.9% NaCl solution. The trachea and primary bronchi were removed, blotted dry and weighed. Dye quantitation was performed spectrophotometrically ([…]) after extracting tissues in formamide for 24 hr at 50° C. Values were subtracted from background (dye only, no agonist). ED50 (dose of compound which inhibits SP-induced plasma protein extravasation by 50%) was calculated from linear regression analysis.

NK1 and NK2 receptors = experiment: Antagonism of capsaicin aerosol induced respiratory effects in conscious guinea pigs; assay type: in vivo, guinea pig; settings: for SRE NUMBER (coughs/gasps): 19 min capsaicin exposure; for SRE NUMBER (coughs/gasps) / DYSPNEA ONSET / MAXIMUM PRESSURE INCREASE: mean and SEM; for DYSPNEA INCIDENCE / DYSPNEA ONSET / MAXIMUM PRESSURE INCREASE: capsaicin aerosol 0.001%
Method: as §1, §2, §3
Capsaicin aerosol is known to promote release of the tachykinins SP and NKA from sensory nerves in the airways of guinea pigs which may then act upon NK1 and NK2 receptors, respectively to elicit r[…]. The ability of the compounds of Example 3A; and Example 20A to attenuate capsaicin-induced r[…], shown in Table 7a, is inferred from their ability to reduce incidence of dyspnea, prolong the onset of the response and reduce the number of coughs/gasps which occur during aerosol exposure.

NK1 receptor [2] = molecular target: T1, NK1 receptor; experiment: Antagonism of iodinated tachykinin (125I-substance P) binding to NK1 receptor in guinea pig lungs; set-up: tissue Keystone Biologicals, Cleveland, Ohio; host or cells: guinea pig lung membranes; settings: guinea pig lungs; mean of several experiments; read-out: NK-1 IC50
Method: ANTAGONISM OF IODINATED TACHYKININ BINDING TO NK1 AND NK2 RECEPTORS BY PUTATIVE ANTAGONISTS
The NK1 receptor affinity of proposed tachykinin antagonists was evaluated in guinea pig lungs (Keystone Biologicals, Cleveland, Ohio), affinity for the NK2 receptor evaluated in HSKR-1 cells (which are mouse 3T3 fibroblasts expressing the human jejunal NK2 receptor) and NK-3 receptor affinity was evaluated in freshly collected guinea pig cerebral cortex. Tissues or cells were homogenized with a Polytron in 15 volumes of 50 mM Tris-HCl buffer (pH 7.4, 4° C.) and centrifuged. The pellet was resuspended in Tris-HCl buffer and was centrifuged; the pellet was washed twice by resuspension. The final pellet was resuspended at a concentration of 40 mg/ml for tissues (guinea pig lung and cerebral cortex) and 20 mg/ml for cells in incubation buffer and remained at room temperature for at least 15 min prior to use. Receptor binding was initiated by addition of 250 ul membrane preparation in duplicate to 0.1 nM of the following radioligands: ^125 I-Bolton Hunter Lys-3 labeled substance P; ^125 iodohistidyl-1-neurokinin A; and ^125 I-Bolton Hunter labeled Lys-4 eledoisin in a final volume of 500 ul of buffer containing 50 mM Tris-HCl (pH 7.4 at room temperature), 0.1% bovine serum albumin, 2 mM MnCl2, 40 ug/ml bacitracin, 4 µg/ml leupeptin and chymostatin, 1 μM thiorphan and various doses of the putative tachykinin antagonists. Incubations were performed at room temperature for 90 min (NK1 receptor assays) or 2 hr (NK2 and NK3 receptor assays); binding was terminated by addition of 50 mM Tris-HCl buffer (pH 7.4, 4° C.) and filtration under vacuum through GF/B filters presoaked with 0.1% polyethyleneimine (NK1 receptor assays) or 0.5% bovine serum albumin (NK2 and NK3 receptor assays). Filter bound radioactivity was quantitated in a gamma counter. Nonspecific binding was defined as binding in the presence of 1 μM substance P, neurokinin A, or eledoisin. Specific binding was calculated by subtracting nonspecific binding from total binding. Competition of iodinated SP, NKA, or eledoisin binding by test compounds or standards was expressed as a percentage of this maximum competition. IC50 values (concentration required to inhibit 50% of receptor binding) were generated for each of the test compounds by nonlinear regression using an iterative curve fitting program (GraphPAD Inplot, San Diego, Calif.).

T1 sequence (P30547 whole entry): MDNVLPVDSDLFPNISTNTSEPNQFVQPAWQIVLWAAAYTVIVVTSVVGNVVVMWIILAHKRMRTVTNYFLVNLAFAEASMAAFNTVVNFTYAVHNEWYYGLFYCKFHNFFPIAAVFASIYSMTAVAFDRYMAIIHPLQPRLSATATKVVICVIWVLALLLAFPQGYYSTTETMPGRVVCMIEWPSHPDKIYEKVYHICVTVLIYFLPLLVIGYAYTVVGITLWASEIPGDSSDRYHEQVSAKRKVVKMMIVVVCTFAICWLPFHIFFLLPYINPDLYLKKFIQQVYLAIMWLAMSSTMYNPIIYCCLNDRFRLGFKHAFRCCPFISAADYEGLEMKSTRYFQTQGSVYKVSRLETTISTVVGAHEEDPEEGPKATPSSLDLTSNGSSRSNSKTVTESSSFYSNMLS

`COc1cc(C(=O)N2CCC(CCN3CCC(C(N)=O)(c4ccccc4)CC3)(c3ccc(Cl)c(Cl)c3)C2)cc(OC)c1OC` (single isomer, unassigned; (+)) [Example 20A, (+)-1-[2-[3-(3,4-dichloro-phenyl)-1-(3,4,-trimethoxy-benzoyl)-pyrrolidin-3-yl]-ethyl]-4-phenyl-piperidine-4-carboxylic acid amide hydrochloride] was tested, and the “DYSPNEA INCIDENCE” value (NK2 receptor; 1 mg/kg) was 100%, the “DYSPNEA ONSET” value (NK2 receptor; 1 mg/kg) was 451 ± 30 s and the “DYSPNEA INCIDENCE” value (NK2 receptor; 5 mg/kg) was 90%. For the same molecule, the “DYSPNEA ONSET” value (NK2 receptor; 5 mg/kg) was 706 ± 82 s, the “DYSPNEA INCIDENCE” value (NK2 receptor; 10 mg/kg) was 70% and the “DYSPNEA ONSET” value (NK2 receptor; 10 mg/kg) was 829 ± 105 s. For the same molecule, the “relative potency as NK-1 receptor antagonists (in words)” value (NK1 receptor [1]) was “equipotent”, the “SRE NUMBER (coughs/gasps)” value (NK1 and NK2 receptors; 1 mg/kg intravenous) was 9.9 ± 2.7 and the “DYSPNEA INCIDENCE” value (NK1 and NK2 receptors; 1 mg/kg intravenous) was 77.8%. For the same molecule, the “DYSPNEA ONSET” value (NK1 and NK2 receptors; 1 mg/kg intravenous) was 331 ± 22 s, the “MAXIMUM PRESSURE INCREASE” value (NK1 and NK2 receptors; 1 mg/kg intravenous) was 1.0 ± 0.1 mmH2 O and the “SRE NUMBER (coughs/gasps)” value (NK1 and NK2 receptors; 2.5 mg/kg intravenous) was 8.3 ± 1.6. For the same molecule, the “DYSPNEA INCIDENCE” value (NK1 and NK2 receptors; 2.5 mg/kg intravenous) was 100%, the “DYSPNEA ONSET” value (NK1 and NK2 receptors; 2.5 mg/kg intravenous) was 426 ± 57 s and the “MAXIMUM PRESSURE INCREASE” value (NK1 and NK2 receptors; 2.5 mg/kg intravenous) was 0.6 ± 0.1 mmH2 O. For the same molecule, the “SRE NUMBER (coughs/gasps)” value (NK1 and NK2 receptors; 5 mg/kg intravenous) was 4.4 ± 1.9, the “DYSPNEA INCIDENCE” value (NK1 and NK2 receptors; 5 mg/kg intravenous) was 44.4% and the “DYSPNEA ONSET” value (NK1 and NK2 receptors; 5 mg/kg intravenous) was 597 ± 186 s. For the same molecule, the “MAXIMUM PRESSURE INCREASE” value (NK1 and NK2 receptors; 5 mg/kg intravenous) was 0.8 ± 0.06 mmH2 O, the “SRE NUMBER (coughs/gasps)” value (NK1 and NK2 receptors; 10 mg/kg intravenous) was 3.3 ± 1.1 and the “DYSPNEA INCIDENCE” value (NK1 and NK2 receptors; 10 mg/kg intravenous) was 55.6%. For the same molecule, the “DYSPNEA ONSET” value (NK1 and NK2 receptors; 10 mg/kg intravenous) was 592 ± 71 s, the “MAXIMUM PRESSURE INCREASE” value (NK1 and NK2 receptors; 10 mg/kg intravenous) was 0.8 ± 0.1 mmH2 O and the “inhibition of endogenous tachykinins released by capsaicin aerosol (in words)” value (NK1 and NK2 receptors; guinea pig, in vivo) was “inhibit the endogenous tachykinins released by capsaicin aerosol”.

Molecule `NC(=O)C1(c2ccccc2)CCN(CCC2(c3ccc(Cl)c(Cl)c3)CCN(C(=O)c3ccccc3)C2)CC1` (stereo not drawn) [Example 1, 1-[2-[3-(3,4-dichloro-phenyl)-1-benzoyl-pyrrolidin-3-yl]-ethyl]-4-phenyl-piperidine-4-carboxylic acid amide] has an IC50 (NK1 receptor [2]) of 270 nM.

In the case of `COc1ccccc1CC(=O)N1CCC(CCN2CCC(C(N)=O)(c3ccccc3)CC2)(c2ccc(Cl)c(Cl)c2)C1` (stereo not drawn) [Example 4, 1-(2-[3-(3,4-dichloro-phenyl)-1-[2-(2-methoxy-phenyl)-acetyl]-pyrrolidin-3-yl]-ethyl)-4-phenyl-piperidine-4-carboxylic acid amide], the IC50 (NK1 receptor [2]) is reported as 48 nM.

With `COc1ccccc1C(=O)N1CCC(CCN2CCC(C(N)=O)(c3ccccc3)CC2)(c2ccc(Cl)c(Cl)c2)C1` (stereo not drawn) [Example 13, 1-[2-[3-(3,4-dichloro-phenyl)-1-(2-methoxy-benzoyl)-pyrrolidin-3-yl]-ethyl]-4-phenyl-piperidine-4-carboxylic acid amide] the IC50 (NK1 receptor [2]) was 74 nM.
